Measurements reported in patent US6410597B1, “Hydroxyalkyl amide analogs of ceramide” (Virginia Commonwealth University, priority 2000, dated 2002).
“Also recorded” adds a separate entry of the source.

Key:
T98 cells = test: MTS proliferation assay of malignant glioma cells; format: cell-based, human; details: T98, 5 days; S16 100 μM, S18 100 or 200 μM
Method: (§1) FIGS. 5A, 5B and 5C. MTS proliferation assay of in vitro brain tumor cells (malignant glioma) treated with structural analogues of ceramic. (•) control; (∘) S16, 100 μM; (▾) S18, 200 μM; (∇) S18, 100 μM. 5A: U87 cells (6 days); 5B: RT2 cells (6 days); 5C: T98 cells (5 days).
(§2) Murine neuroblastoma x rat glioma NG108-15 and murine neuroblastoma x rat dorsal root ganglion F-11 cells were kindly provided by Drs. Robert Ledeen (New Jersey School of Medicine, Newark, N.J.) and Glyn Dawson (University of Chicago, Chicago, Ill.), respectively. PC12 (rat adrenal pheochromocytoma, ATCC CRL 1721) cells were purchased from the American Type Culture Collection (Manassas, Va.). U87 and T98 human glioma cells were purchased from the American Type Culture Collection (Manassas, Va.). RT2 rat glioma cells were a gift.
(§3) CU87, T98 or RT2 malignant glioma cells (750/well) were plated onto 96-well plates and allowed to grow for 5-6 days in the presence of the ceramic analogues S16, S18 or B16, or control media. The CellTiter96® Aqueous One cell proliferation assay (Promega, Inc.) was used to quantify glioma cell proliferation. In this assay, the amount of formazan product (490 nm absorbance) made from the conversion of [3-(,5-dimethyl-2-yl)-5-(3-carboxymethoxyphenyl)-2-(4-sulfophenyl)-2H-tetrazolium, inner salt (MTS) by dehydrogenase enzymes of metabolically active cells is directly proportional to the number of living cells in culture.
(§4) The effect of the compounds S16, S18, and B16 on the ability of U87, RT2 and T98 glioma cells to proliferate in vitro was investigated as described in Methods and the results are presented in FIGS. 5A, 5B and 5C, respectively.

U87 cells = test: MTS proliferation assay of malignant glioma cells; format: cell-based, human; details: U87, 6 days; S16 100 μM, S18 100 or 200 μM
Method: as §1, §2, §3, §4

RT2 cells = test: MTS proliferation assay of malignant glioma cells; format: cell-based, rat; details: RT2, 6 days; S16 100 μM, S18 100 or 200 μM
Method: as §1, §2, §3, §4

[1] = test system: Neuroblastoma cells (NG108-15 or F-11); test: Effect of alkyl chain length on apoptotic potential of N-acylated compounds; format: cell-based; details: 30% confluence, overnight, various concentrations
Method: (§5) Apoptosis was analyzed by DNA fragmentation, in situ terminal nucleotidyl transferase assay, and staining of condensed chromatin with Hoechst dye 33258 as described elsewhere (Ji et al., 1995; Bieberich et al., 1999) and as further outlined below. The degree of cell death was monitored by determination of the number of floating cells and cells stained with 0.4% trypan blue (Wang et al., 1999).
Neuroblastoma cells (NG108-15 or F-11) were grown to 30% confluence and incubated overnight with various concentrations of N-acyl compounds containing carbon chains with 8, 16 and 18 carbons, as well as C16 ethanolamine. The floating cells were harvested from the medium and the amount of cellular protein determined for calculation of dead cells. In addition, cell death was quantified by staining with trypan blue. The attached cells were stained with Hoechst dye 33258 for calculation of apoptotic cells with condensed chromatin. The number of apoptotic cells was determined by counting 100 stained cells in 20 different areas on tissue culture dishes from three independent experiments.
The effect of alkyl chain length on the apoptotic potential of S16 and two compounds differing only in the length of the alkyl chains, S8 (8 carbons)and S18 (18 carbons) was investigated as described in Methods. Also, the contribution of the second β-hydroxymethyl group of S16 was analyzed by comparison with the effect of C16 EA (C16 ethanolamine) on apoptosis. […] As such, the preferred length is 12-20 carbons.

F-11 cells [2] = test: Alteration of ceramic and sphingolipid levels (HPTLC) upon incubation with S16; format: cell-based, murine neuroblastoma x rat dorsal root ganglion
Excerpt: as §2
(§6) Lipids were prepared and analyzed by HPTLC as described previously (Freischutz et al., 1997).
(§7) NG108-15 or F-11 cells were incubated with 100 μM S16 overnight and endogenous ceramic analyzed by HPTLC of neutral lipids corresponding to 200 μg of cellular protein applied per lane. The HPTLC plate was developed in CHCl3/HOAc (9:1), v/v) and sphingolipids stained with cupric acetate/phosphoric acid reagent. Levels of ceramic, sphingomyelin, and neutral lipids were determined by densitometric analysis and comparison with various amounts of standard lipids. […] However, the concentration of ceramic in F-11 and NG108-15 cells at 20% confluence was elevated by about 50-80%.

[3] = General toxicity during in vivo treatment; details: up to a total of 200 mg/kg/day, treatment for 14 days
Method: (§8) The intraperitoneal administration of ceramic analogs started one day after grafting and was performed twice per day with 0.7 ml of 2 mM S16 or 4 mM S18 corresponding to 50-100 mg/kg per mouse. The compounds were predissolved in dimethylsulfoxide (DMSO) at a maximum concentration of 250 mM and then serially diluted to 2 mM S16 or 4 mM S18 in 20% bovine serum albumin (BSA), 500 μM sodium stearate, 0.9% sodium chloride.
(§9) Athymic mice were grafted with neuroblastoma tumors by subcutaneous injection and treated by intraperitoneal or intratumoral injection of S16 as described in Methods. Control mice received no treatment, or treatment with C-16 EA. […] Furthermore, the first measurable tumors appeared 2 days later in mice treated with S16 than in control mice.

F-11 cells [4] = test: Cell density-dependent DNA fragmentation (laddering); format: cell-based, murine neuroblastoma x rat dorsal root ganglion; details: 100 μM S16, 15 hours; 30% confluent compared with 100% confluent cells
[5] = test system: NG108-15 or F-11 neuroblastoma tumors; test: In vivo tumor model in athymic mice; set-up: species or system athymic NU/NU mice
Method: A total of 1×10^6 NG108-15 or F-11 cells in 200 μl of phosphate buffered saline (PBS) was subcutaneously injected into each side of athymic NU/NU mice (Harlan) for generation of an in vivo brain tumor model in mouse skin. The resulting tumors were treated either intraperitoneally or by direct intratumor injection of ceramic analogs. Tumor growth rates and treatment results were the same within experimental error regardless of whether NG108-15 or F-11 cells were used.
Tumor growth was monitored by caliper measurement. The tumor volume was calculated by the formula: tumor size [mm^3]=(tumor width [mm])^2×tumor length [mm].
as §8
The intratumoral administration of ceramic analogs was initiated when tumor size was 30-50 mm^3 and consisted of daily injections of a 10-fold concentrated analog solution prepared as described above for S16 or of 2 mM B16 in 0.9% sodium chloride. The final concentration was calculated to be 200 μM when applied in a volume of 10% of the tumor size. Tumor volume was measured and calculated as described above.
as §9, with “mice. […]” for “mice.”
FIG. 9. […] The tumor volume was determined by caliper measurement and was about 4 ml for the mouse on the left side (untreated for 10 days) and 2 ml for the mouse on the right side (treated for 14 days).

PC12 cells = test: Dependence of apoptosis on cell differentiation (Hoechst dye 33258 staining); format: cell-based, rat; details: 24 hours; undifferentiated vs forskolin-differentiated PC12 cells
Excerpt: as §2, §5
The dependence of apoptosis upon differentiation of cells was analyzed by incubating undifferentiated PC12 cells and PC12 cells which had been induced to differentiate with S16 for 24 hours. Differentiation was induced by preincubation with 10 μM forskolin for 48 hrs. The extent of apoptosis was determined by staining with Hoechst dye 33258.
The apoptotic potential of S16 with respect to cell differentiation was investigated as described in Methods.

NG108-15 cells [6] = test: Alteration of ceramic and sphingolipid levels (HPTLC) upon incubation with S16; format: cell-based, murine neuroblastoma x rat glioma
Excerpt: as §2, §6, §7

NG108-15 cells [7] = test: Dependence of S16 induced apoptosis on cell density; format: cell-based, murine neuroblastoma x rat glioma; details: 100 μM S16 overnight; cell density below 20% or above 50%
Method: as §5
Cells were grown to varying degrees of confluence (100%=1.0×10^5 cells/cm^2) and then incubated overnight with 100 μM S16. The floating cells were harvested from the medium and the amount of cellular protein determined for calculation of dead cells. In addition, cell death was quantified by staining with trypan blue. The attached cells were stained with Hoechst dye 33258 for calculation of apoptotic cells with condensed chromatin. The number of apoptotic cells was determined by counting 100 stained cells in 20 different areas on tissue culture dishes from three independent experiments.
(§10) The dependence of the rate of S16 induced apoptosis of NG108-15 cells on cell density was investigated as described in methods and the results are given in FIG. 3. […] This observation was confirmed by determination of cell density-dependent DNA fragmentation (laddering) upon incubation with S16. Cells were incubated with 100 μM S16 for 15 hours.

NG108-15 cells [8] = test: Cell density-dependent DNA fragmentation (laddering); format: cell-based, murine neuroblastoma x rat glioma; details: 100 μM S16, 15 hours; 30% confluent compared with 100% confluent cells
Method: as §5, §10

[9] = 100 μM S16, 100% confluent cells
[10] = 100 μM S16 overnight, cells at 20% confluence

SMILES | cellular proliferation (T98 cells) | cellular proliferation (U87 cells) | cellular proliferation (RT2 cells) | apoptotic potential [1] | alteration of endogenous ceramic (F-11 cells [2]; [9]) | alteration of the glycosphingolipid composition (F-11 cells [2]; 100 μM S16 overnight) | alteration of the level of sphingomyelin (F-11 cells [2]; 100 μM S16 overnight) | concentration of ceramic elevated (F-11 cells [2]; [10]) | effects of general toxicity [3] | laddering of 200-base pair fragments (F-11 cells [4]) | final size of the tumors relative to untreated or C16-EA treated mice ([5]; intraperitoneal or intratumoral injection) | delay of appearance of first measurable tumors versus control mice ([5]; mice treated with S16) [days] | apoptosis (staining with Hoechst dye) (PC12 cells) | alteration of endogenous ceramic (NG108-15 cells [6]; [9]) | alteration of the glycosphingolipid composition (NG108-15 cells [6]; 100 μM S16 overnight) | alteration of the level of sphingomyelin (NG108-15 cells [6]; 100 μM S16 overnight) | concentration of ceramic elevated (NG108-15 cells [6]; [10]) | degree of apoptosis (NG108-15 cells [7]) | laddering of 200-base pair fragments (NG108-15 cells [8]) | tumor volume (caliper measurement) ([5]; F-11 grafts, intra-peritoneal 0.7 ml of 4 mM twice a day for 14 days, untreated mouse about 4 ml at 10 days) [mL]
CCCCCCCCCCCCCCCC(=O)N(CCO)CCO [B16, N,N-bis(2-hydroxyethyl) palmitamide] | marked decrease in cellular proliferation; also recorded: virtually eliminating the proliferation | marked decrease in cellular proliferation; also recorded: virtually eliminating the proliferation | marked decrease in cellular proliferation; also recorded: virtually eliminating the proliferation |  |  |  |  |  |  |  |  |  |  |  |  |  |  |  |  | 
CCCCCCCCCCCCCCCC(=O)NCCO [C16 EA, N-palmitoyl ethanolamine, reference compound] |  |  |  | almost no apoptosis |  |  |  |  |  |  |  |  |  |  |  |  |  |  |  | 
CCCCCCCCCCCCCCCC(=O)NC(CO)CO [S16, N-palmitoyl serinol] | marked decrease in cellular proliferation | marked decrease in cellular proliferation | marked decrease in cellular proliferation | optimal | no significant alteration | no detectable alteration | no detectable alteration | 50-80% | No effects of general toxicity were observable | increased markedly | 30-35% | 2 | only undifferentiated cells showed the typical staining | no significant alteration | no detectable alteration | no detectable alteration | 50-80% | markedly decreased | increased markedly | 
CCCCCCCC/C=C\CCCCCCCC(=O)NC(CO)CO [S18, N-oleoyl serinol] | marked decrease in cellular proliferation; also recorded: virtually eliminating the proliferation | marked decrease in cellular proliferation; also recorded: virtually eliminating the proliferation | marked decrease in cellular proliferation; also recorded: virtually eliminating the proliferation | optimal |  |  |  |  |  |  |  |  |  |  |  |  |  |  |  | ~2
